Measured values taken from patent US11667602B2, “Compounds and their use” (AstraZeneca AB, priority 2020, dated 2023).
Like-named read-outs stand apart in the source and are kept apart here.

Molecular target: T1, human RXFP1 (Homo sapiens, UniProt Q9HBX9)
T1 sequence (Q9HBX9 1-757): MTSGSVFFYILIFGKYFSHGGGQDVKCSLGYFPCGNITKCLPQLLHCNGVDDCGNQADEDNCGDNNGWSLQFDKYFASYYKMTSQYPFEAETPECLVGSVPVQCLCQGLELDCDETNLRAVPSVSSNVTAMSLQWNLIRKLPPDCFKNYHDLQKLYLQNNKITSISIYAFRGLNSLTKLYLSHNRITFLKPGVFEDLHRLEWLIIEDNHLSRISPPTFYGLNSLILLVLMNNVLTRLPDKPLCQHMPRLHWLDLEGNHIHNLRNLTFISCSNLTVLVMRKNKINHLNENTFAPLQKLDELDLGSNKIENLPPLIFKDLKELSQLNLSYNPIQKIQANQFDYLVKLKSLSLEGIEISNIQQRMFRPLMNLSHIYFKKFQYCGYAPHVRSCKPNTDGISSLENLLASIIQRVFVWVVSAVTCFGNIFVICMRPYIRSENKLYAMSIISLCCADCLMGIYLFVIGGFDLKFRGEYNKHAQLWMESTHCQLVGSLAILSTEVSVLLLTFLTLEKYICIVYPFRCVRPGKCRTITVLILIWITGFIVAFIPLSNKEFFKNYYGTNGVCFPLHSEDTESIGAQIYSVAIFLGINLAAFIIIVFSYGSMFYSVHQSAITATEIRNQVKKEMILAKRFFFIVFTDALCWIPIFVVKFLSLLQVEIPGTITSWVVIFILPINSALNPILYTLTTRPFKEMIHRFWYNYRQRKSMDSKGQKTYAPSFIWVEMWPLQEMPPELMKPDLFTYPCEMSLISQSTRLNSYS
Assay: RXFP1 Hu cAMP (Test A)
Type: cell-based
Design: expressed in transfected cells; host or cells: Jump-In T-REx CHO-K1 cells (ThermoFisher), induced with 10 ng/ml doxycycline for 24 h
In short: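 Competitive HTRF cAMP readout (2 h, room temperature) in CHO-K1 cells stably expressing human RXFP1, induced with 10 ng/ml doxycycline for 24 h; IBMX 0.5 mM final.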

[1] = RXFP1 Hu cAMP, read-out: Test A EC50

COc1cc(F)c(O[C@H]2CC[C@@](C)(C(=O)O)CC2)cc1C(=O)N[C@@H]1[C@H]2CC[C@H](C2)[C@@H]1C(=O)NC(C)(C)C [Example 602]
Test A Sinf (RXFP1 Hu cAMP): 100%
EC50 [1]: 0.25 µM

CC1(CNC(=O)[C@H]2[C@@H]3CC[C@@H](C3)[C@H]2NC(=O)c2cc(O[C@H]3CC[C@@](C)(C(=O)O)CC3)c(F)cc2C#N)CCC1 [Example 377]
Test A Sinf (RXFP1 Hu cAMP): 100%

COc1cc(F)c(O[C@H]2CC[C@@](C)(C(=O)O)CC2)cc1C(=O)N[C@@H]1CC[C@@H]1C(=O)NCC(C)(C)C (racemic) [Example 346]
Test A Sinf (RXFP1 Hu cAMP): 96%

COc1cc(F)c(O[C@H]2CC[C@@](C)(C(=O)O)CC2)cc1C(=O)N[C@@H]1[C@H]2CC[C@H](C2)[C@@H]1C(=O)NC(C)(C)C(F)(F)F [Example 603]
Test A Sinf (RXFP1 Hu cAMP): 99%
EC50 [1]: 0.094 µM

COc1cc(F)c(OC2CCC(O)(C(=O)O)CC2)cc1C(=O)N[C@@H]1[C@@H]2CC[C@@H](C2)[C@@H]1C(=O)Nc1cccc(S(=O)(=O)C(F)(F)F)c1 (relative stereo) [Example 583, (1R,4r)-4-(2-Fluoro-4-methoxy-5-(((1R*,2R*,3S*,4S*)-3-((3-((trifluoromethyl)sulfonyl)phenyl)carbamoyl)bicyclo[2.2.1]heptan-2-yl)carbamoyl)phenoxy)-1-hydroxycyclohexane-1-carboxylic acid]
Test A Sinf (RXFP1 Hu cAMP): 84%
EC50 [1]: 0.35 µM

COc1cc(C#N)c(O[C@H]2CC[C@@](C)(C(=O)O)CC2)cc1C(=O)N[C@@H]1[C@H]2CC[C@H](C2)[C@@H]1C(=O)NCCCC1CC1 [Example 132]
Test A Sinf (RXFP1 Hu cAMP): 113%

COc1cc(F)c(O[C@@H]2CC[C@H](C(=O)O)OC2)cc1C(=O)NC1[C@H]2CC[C@H](C2)[C@@H]1C(=O)Nc1cccc(S(=O)(=O)C(F)(F)F)c1 (mixture of isomers) [Example 442]
Test A Sinf (RXFP1 Hu cAMP): 103%
EC50 [1]: 0.58 µM

Cn1ncc2c(O[C@H]3CC[C@@](C)(C(=O)O)CC3)cc(C(=O)N[C@@H]3[C@H]4CC[C@H](C4)[C@@H]3C(=O)NCC3(C)CCC3)cc21 [Example 379]
Test A Sinf (RXFP1 Hu cAMP): 100%
EC50 [1]: 0.48 µM

COc1cc(F)c(OC2CCC(C)(C(=O)O)CC2)cc1C(=O)NC1COCC1C(=O)NCC1(C)CCC1 [Example 576, (1R,4s)-4-(2-Fluoro-4-methoxy-5-(((3S*,4R*)-4-(((1-methylcyclobutyl)methyl)carbamoyl)tetrahydrofuran-3-yl)carbamoyl)phenoxy)-1-methylcyclohexane-1-carboxylic acid]
Test A Sinf (RXFP1 Hu cAMP): 118%

COc1cc(C#N)c(O[C@H]2CC[C@@](C)(C(=O)O)CC2)cc1C(=O)NC1C2CCC(CC2)C1C(=O)NCC1(C)CCC1 (single isomer, unassigned) [Example 538, (1R,4s)-4-(2-Cyano-4-methoxy-5-(((2S*,3R*)-3-(((1-methylcyclobutyl)methyl)carbamoyl)bicyclo[2.2.2]octan-2-yl)carbamoyl)phenoxy)-1-methylcyclohexane-1-carboxylic acid]
Test A Sinf (RXFP1 Hu cAMP): 100%
EC50 [1]: 11 µM

CC1(CNC(=O)[C@H]2[C@@H]3CC[C@@H](C3)[C@H]2NC(=O)c2ccc(F)c(O[C@H]3CC[C@@](C)(C(=O)O)CC3)c2)CCC1 [Example 400]
Test A Sinf (RXFP1 Hu cAMP): 91%
EC50 (Test A EC50, RXFP1 Hu cAMP): 0.18 µM

COc1cc(F)c(O[C@H]2CC[C@@](C)(C(=O)O)CC2)cc1C(=O)N[C@@H]1CCN(C(C)=O)C[C@@H]1C(=O)Nc1cccc(S(=O)(=O)C(F)(F)F)c1 (racemic) [Example 487, (1R,4s)-4-(5-(((3RS,4SR)-1-Acetyl-3-((3-((trifluoromethyl)sulfonyl)phenyl)carbamoyl)piperidin-4-yl)carbamoyl)-2-fluoro-4-methoxyphenoxy)-1-methylcyclohexane-1-carboxylic acid]
EC50 [1]: > 40 µM

COc1cc(F)c(OC2CCC(N)(C(=O)O)CC2)cc1C(=O)N[C@@H]1[C@H]2CC[C@H](C2)[C@@H]1C(=O)Nc1cccc(S(=O)(=O)C(F)(F)F)c1 (stereo partly drawn) [Example 458, 1-Amino-4-(2-fluoro-4-methoxy-5-(((1S,2R,3S,4R)-3-((3-((trifluoromethyl)sulfonyl)phenyl)carbamoyl)bicyclo[2.2.1]heptan-2-yl)carbamoyl)phenoxy)cyclohexane-1-carboxylic acid]
Test A Sinf (RXFP1 Hu cAMP): 104%
EC50 [1]: 0.11 µM

COc1cc(F)c(O[C@H]2CC[C@@](C)(C(=O)O)CC2)cc1C(=O)NC1CCN(C(C)=O)CC1C(=O)Nc1cccc(S(=O)(=O)C(F)(F)F)c1 (single isomer, unassigned) [Example 514, (1R,4s)-4-(5-(((3R*,4S*)-1-Acetyl-3-((3-((trifluoromethyl)sulfonyl)phenyl)carbamoyl)piperidin-4-yl)carbamoyl)-2-fluoro-4-methoxyphenoxy)-1-methylcyclohexane-1-carboxylic acid]
Test A Sinf (RXFP1 Hu cAMP): 107%
EC50 [1]: 15 µM

COc1cc(F)c(O[C@H]2CC[C@@H](NS(C)(=O)=O)CC2)cc1C(=O)N[C@@H]1[C@H]2CC[C@H](C2)[C@@H]1C(=O)Nc1cccc(S(=O)(=O)C(F)(F)F)c1 [Example 459, (1R,2S,3R,4S)-3-(4-Fluoro-2-methoxy-5-(((1s,4S)-4-(methylsulfonamido)cyclohexyl)oxy)benzamido)-N-(3-((trifluoromethyl)sulfonyl)phenyl)bicyclo[2.2.1]heptane-2-carboxamide]
Test A Sinf (RXFP1 Hu cAMP): 91%
EC50 [1]: 0.32 µM

COc1cc(F)c(OC2CCC(C)(CC(=O)O)CC2)cc1C(=O)NC1C2CCC(C2)C1C(=O)NCC1(C)CCC1 [Example 476, 2-((1S,4s)-4-(2-Fluoro-4-methoxy-5-(((1S,2R,3S,4R)-3-(((1-methylcyclobutyl)methyl)carbamoyl)bicyclo[2.2.1]heptan-2-yl)carbamoyl)phenoxy)-1-methylcyclohexyl)acetic acid]
Test A Sinf (RXFP1 Hu cAMP): 81%
EC50 [1]: 0.3 µM

COc1cc(F)c(-c2cc(C)c(C(=O)O)c(C)c2)cc1C(=O)N[C@@H]1[C@H]2CC[C@H](C2)[C@@H]1C(=O)Nc1cccc(S(=O)(=O)C(F)(F)F)c1 [Example 252, 2′-Fluoro-4′-methoxy-3,5-dimethyl-5′-(((1S,2R,3S,4R)-3-((3-((trifluoromethyl)sulfonyl)phenyl)carbamoyl)bicyclo[2.2.1]heptan-2-yl)carbamoyl)-[1,1′-biphenyl]-4-carboxylic acid]
Test A Sinf (RXFP1 Hu cAMP): 86%
EC50 [1]: 0.78 µM

COc1cc(C#N)c(O[C@H]2CC[C@@](C)(C(=O)O)CC2)cc1C(=O)Nc1cc(Cl)ccc1C(=O)NCC1(c2ccccc2)CC1 [Example 158]
Test A Sinf (RXFP1 Hu cAMP): 118%
EC50 [1]: 0.11 µM

COc1cc(C#N)c(O[C@H]2CC[C@@](C)(C(=O)O)CC2)cc1C(=O)N[C@@H]1[C@H]2CC[C@H](C2)[C@@H]1C(=O)NCCC(C)(C)C [Example 130]
Test A Sinf (RXFP1 Hu cAMP): 95%
EC50 [1]: 0.078 µM

COc1cc(F)c(O[C@H]2CC[C@@](C)(C(=O)O)CC2)cc1C(=O)N[C@@H]1[C@H]2CC[C@H](C2)[C@@H]1C(=O)NCC(C)(C)OC [Example 610]
Test A Sinf (RXFP1 Hu cAMP): 105%

COc1cc(F)c(O[C@H]2C[C@@H]3[C@H](C2)[C@H]3C(=O)O)cc1C(=O)N[C@@H]1[C@H]2CC[C@H](C2)[C@@H]1C(=O)NCC1(C)CCC1 (racemic) [Example 426, (1RS,3SR,5SR,6RS)-3-(2-Fluoro-4-methoxy-5-(((1S,2R,3S,4R)-3-(((1-methylcyclobutyl)methyl)carbamoyl)bicyclo[2.2.1]heptan-2-yl)carbamoyl)phenoxy)bicyclo[3.1.0]hexane-6-carboxylic acid]
EC50 [1]: > 40 µM

COc1cc(F)c(O[C@H]2CC[C@@](C)(C(=O)O)CC2)cc1C(=O)N[C@@H]1[C@H]2CC[C@H](C2)[C@@H]1C(=O)NCC1(C(F)(F)F)CC1 [Example 614]
Test A Sinf (RXFP1 Hu cAMP): 96%

COc1cc(C#N)c(O[C@H]2CC[C@@](C)(C(=O)O)CC2)cc1C(=O)Nc1cc(C)ccc1C(=O)N[C@H]1CC[C@H](C)CC1 [Example 169]
Test A Sinf (RXFP1 Hu cAMP): 111%
EC50 [1]: 0.27 µM

COc1cc(F)c(O[C@H]2CC[C@@](F)(C(=O)O)CC2)cc1C(=O)N[C@@H]1[C@H]2CC[C@H](C2)[C@@H]1C(=O)NCC1(C)CCC1 [Example 415]
Test A Sinf (RXFP1 Hu cAMP): 103%

COc1cc(F)c(OC2CCCC(C(=O)O)C2)cc1C(=O)N[C@@H]1[C@H]2CC[C@H](C2)[C@@H]1C(=O)Nc1cccc(S(=O)(=O)C(F)(F)F)c1 (single isomer, unassigned) [Example 447]
Test A Sinf (RXFP1 Hu cAMP): 94%
EC50 [1]: 0.83 µM

COc1cc(F)c(OC2CCC(CO)(C(=O)O)CC2)cc1C(=O)N[C@H]1C[C@H](OC)C[C@H]1C(=O)NCC(C)(C)C (relative stereo) [Example 549, (1R,4s)-4-(2-Fluoro-4-methoxy-5-(((1S*,2R*,4R*)-4-methoxy-2-(neopentylcarbamoyl)cyclopentyl)carbamoyl)phenoxy)-1-(hydroxymethyl)cyclohexane-1-carboxylic acid]
Test A Sinf (RXFP1 Hu cAMP): 94%
EC50 [1]: 1.3 µM
